# Reference: patent US20070142392A1, “Uses of rifamycins” (ActivBiotics, Inc., priority 2005, published 2007)
# Experiments:
# Type in all cases: cell-based
# S. pneumo. = experiment: MIC values, S. pneumo. (Tables 1-4)
# E. faecalis = experiment: MIC values, E. faecalis (Tables 1-4)
# H. flu = tested on: H. flu
# E. coli = experiment: MIC values, E. coli (Tables 1-4)
# S. aureus = experiment: MIC values, S. aureus (Tables 1-4)
Compound,MIC S. pneumo. (S. pneumo.) [µg/mL],MIC E. faecalis (E. faecalis) [µg/mL],MIC H. flu (H. flu) [µg/mL],MIC E. coli (E. coli) [µg/mL],MIC S. aureus (S. aureus) [µg/mL]
CCOc1c(N2CCN(CCOC)CC2)cc(N2CCN(CCOC)CC2)c2nc3c4c5c6c(C)c(O)c4c(=O)c(c-3oc12)NC(=O)/C(C)=C\C=C\[C@H](C)[C@H](O)[C@@H](C)[C@@H](O)[C@@H](C)[C@H](O)[C@H](C)[C@@H](OC)/C=C/O[C@@](C)(O6)C5=O [Compound 95],0.001,8,2,>8,0.12
CCOc1c(N2CCN(CCOC)CC2)ccc2nc3c4c5c6c(C)c(O)c4c(=O)c(c-3oc12)NC(=O)/C(C)=C\C=C\[C@H](C)[C@H](O)[C@@H](C)[C@@H](O)[C@@H](C)[C@H](O)[C@H](C)[C@@H](OC)/C=C/O[C@@](C)(O6)C5=O [Compound 96],0.005,1,0.5,>8,0.015
CO[C@H]1/C=C/O[C@@]2(C)Oc3c(C)c(O)c4c(=O)c(c5oc6cc(N7CCN(C8CCN(C)CC8)CC7)cc(O)c6nc-5c4c3C2=O)NC(=O)/C(C)=C\C=C\[C@H](C)[C@H](O)[C@@H](C)[C@@H](O)[C@@H](C)[C@H](O)[C@@H]1C [Compound 98],0.002,0.5,1,>8,0.015
CO[C@H]1/C=C/O[C@@]2(C)Oc3c(C)c(O)c4c(=O)c(c5oc6cc(N7CCN(CC8CC8)CC7)cc(O)c6nc-5c4c3C2=O)NC(=O)/C(C)=C\C=C\[C@H](C)[C@H](O)[C@@H](C)[C@@H](O)[C@@H](C)[C@H](O)[C@@H]1C [Compound 99],0.0005,0.06,0.25,2,0.008
COC1C=COC2(C)Oc3c(C)c(O)c4c(=O)c(c5oc6cc(N7CC(C)NCC7C)cc(O)c6nc-5c4c3C2=O)NC(=O)C(C)=CC=CC(C)C(O)C(C)C(O)C(C)C(O)C1C (centres unmarked) [Compound 100],0.0005,0.12,0.25,4,0.004
CO[C@H]1/C=C/O[C@@]2(C)Oc3c(C)c(O)c4c(=O)c(c5oc6cc(N7CCN(CCO)CC7)cc(O)c6nc-5c4c3C2=O)NC(=O)/C(C)=C\C=C\[C@H](C)[C@H](O)[C@@H](C)[C@@H](O)[C@@H](C)[C@H](O)[C@@H]1C [Compound 101],0.0005,0.12,0.25,8,0.008
CO[C@H]1/C=C/O[C@@]2(C)Oc3c(C)c(O)c4c(=O)c(c5oc6cc(N7CCN(CCN(C)C)CC7)cc(O)c6nc-5c4c3C2=O)NC(=O)/C(C)=C\C=C\[C@H](C)[C@H](O)[C@@H](C)[C@@H](O)[C@@H](C)[C@H](O)[C@@H]1C [Compound 103],0.008,0.5,0.12,>8,0.03
CO[C@H]1/C=C/O[C@@]2(C)Oc3c(C)c(O)c4c(=O)c(c5sc6cc(N7CCN(C)CC7)ccc6nc-5c4c3C2=O)NC(=O)/C(C)=C\C=C\[C@H](C)[C@H](O)[C@@H](C)[C@@H](O)[C@@H](C)[C@H](O)[C@@H]1C [Compound 104],0.00012,0.12,0.12,2,0.002
CO[C@H]1/C=C/O[C@@]2(C)Oc3c(C)c(O)c4c(=O)c(c5oc6cc(N7CCN(CCF)CC7)cc(O)c6nc-5c4c3C2=O)NC(=O)/C(C)=C\C=C\[C@H](C)[C@H](O)[C@@H](C)[C@@H](O)[C@@H](C)[C@H](O)[C@@H]1C [Compound 105],0.001,0.12,0.12,8,0.004
CO[C@H]1/C=C/O[C@@]2(C)Oc3c(C)c(O)c4c(=O)c(c5oc6cc(N7CCN(c8ncccn8)CC7)cc(O)c6nc-5c4c3C2=O)NC(=O)/C(C)=C\C=C\[C@H](C)[C@H](O)[C@@H](C)[C@@H](O)[C@@H](C)[C@H](O)[C@@H]1C [Compound 106],0.0005,0.25,0.12,>8,0.004
CO[C@H]1/C=C/O[C@@]2(C)Oc3c(C)c(O)c4c(=O)c(c5oc6cc(N7CCNCC7)cc(O)c6nc-5c4c3C2=O)NC(=O)/C(C)=C\C=C\[C@H](C)[C@H](O)[C@@H](C)[C@@H](O)[C@@H](C)[C@H](O)[C@@H]1C [Compound 107],0.002,0.06,0.12,4,0.008
CCOc1c(N2CCN(CC3CC3)CC2)ccc2nc3c4c5c6c(C)c(O)c4c(=O)c(c-3oc12)NC(=O)/C(C)=C\C=C\[C@H](C)[C@H](O)[C@@H](C)[C@@H](O)[C@@H](C)[C@H](O)[C@H](C)[C@@H](OC)/C=C/O[C@@](C)(O6)C5=O [Compound 108],0.015,0.5,1,>8,0.03
CO[C@H]1/C=C/O[C@@]2(C)Oc3c(C)c(O)c4c(=O)c(c5oc6c(F)c(N7CCN(CC(C)C)CC7)ccc6nc-5c4c3C2=O)NC(=O)/C(C)=C\C=C\[C@H](C)[C@H](O)[C@@H](C)[C@@H](O)[C@@H](C)[C@H](O)[C@@H]1C [Compound 109],0.008,0.5,0.5,8,0.03
CO[C@H]1/C=C/O[C@@]2(C)Oc3c(C)c(O)c4c(=O)c(c5oc6cc(N7CCN(C(=O)C8CC8)CC7)cc(O)c6nc-5c4c3C2=O)NC(=O)/C(C)=C\C=C\[C@H](C)[C@H](O)[C@@H](C)[C@@H](O)[C@@H](C)[C@H](O)[C@@H]1C [Compound 110],0.004,0.5,0.25,8,0.015
CCc1cc2nc3c4c5c6c(C)c(O)c4c(=O)c(c-3oc2cc1N1CCCCC1)NC(=O)/C(C)=C\C=C\[C@H](C)[C@H](O)[C@@H](C)[C@@H](O)[C@@H](C)[C@H](O)[C@H](C)[C@@H](OC)/C=C/O[C@@](C)(O6)C5=O [Compound 111],0.12,4,2,1,1
CO[C@H]1/C=C/O[C@@]2(C)Oc3c(C)c(O)c4c(=O)c(c5oc6cc(N7CCC(C(N)=O)CC7)cc(O)c6nc-5c4c3C2=O)NC(=O)/C(C)=C\C=C\[C@H](C)[C@H](O)[C@@H](C)[C@@H](O)[C@@H](C)[C@H](O)[C@@H]1C [Compound 112],0.002,1,0.25,>8,0.03
CCOC(=O)C1CCN(c2cc(O)c3nc4c5c6c7c(C)c(O)c5c(=O)c(c-4oc3c2)NC(=O)/C(C)=C\C=C\[C@H](C)[C@H](O)[C@@H](C)[C@@H](O)[C@@H](C)[C@H](O)[C@H](C)[C@@H](OC)/C=C/O[C@@](C)(O7)C6=O)CC1 [Compound 113],0.008,0.5,0.12,>8,0.004
CO[C@H]1/C=C/O[C@@]2(C)Oc3c(C)c(O)c4c(=O)c(c5oc6cc(N7CCC(F)CC7)ccc6nc-5c4c3C2=O)NC(=O)/C(C)=C\C=C\[C@H](C)[C@H](O)[C@@H](C)[C@@H](O)[C@@H](C)[C@H](O)[C@@H]1C [Compound 114],0.008,0.5,0.12,8,0.03
CO[C@H]1/C=C/O[C@@]2(C)Oc3c(C)c(O)c4c(=O)c(c5oc6cc(N7CCC(F)(F)CC7)ccc6nc-5c4c3C2=O)NC(=O)/C(C)=C\C=C\[C@H](C)[C@H](O)[C@@H](C)[C@@H](O)[C@@H](C)[C@H](O)[C@@H]1C [Compound 115],0.015,1,0.25,>8,0.03
CO[C@H]1/C=C/O[C@@]2(C)Oc3c(C)c(O)c4c(=O)c(c5oc6cc(N7CCCC7)c(C7CCCCC7)cc6nc-5c4c3C2=O)NC(=O)/C(C)=C\C=C\[C@H](C)[C@H](O)[C@@H](C)[C@@H](O)[C@@H](C)[C@H](O)[C@@H]1C [Compound 118],0.25,>8,8,>8,2
CO[C@H]1/C=C/O[C@@]2(C)Oc3c(C)c(O)c4c(=O)c(c5oc6c(C)c(N7CCCC7)cc(C)c6nc-5c4c3C2=O)NC(=O)/C(C)=C\C=C\[C@H](C)[C@H](O)[C@@H](C)[C@@H](O)[C@@H](C)[C@H](O)[C@@H]1C [Compound 119],0.5,2,2,>8,0.5
CO[C@H]1/C=C/O[C@@]2(C)Oc3c(C)c(O)c4c(=O)c(c5oc6cc(N7CCCC7)c(C)c(C)c6nc-5c4c3C2=O)NC(=O)/C(C)=C\C=C\[C@H](C)[C@H](O)[C@@H](C)[C@@H](O)[C@@H](C)[C@H](O)[C@@H]1C [Compound 120],0.06,4,1,>8,0.5
